Several values for one entry are separate records, joined by “and”; a condition that tells them apart may be missing. Equal entries are not always repeated.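 All cell lines were grown in 96-well plates and treated with compound for 48 hours. Abbreviation: GI50, concentration required for 50% inhibition of growth. TGI: concentration producing complete growth inhibition.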 Where a SMILES comes first, the peptide text is derived from it. Bridges are numbered along the chain shown (N, C = ends). [ ]: non-standard residue; d: D form. The star is where a group is joined. ξ: configuration not given here. ξDab(CH2SO3H) = NC(CCNCS(=O)(=O)O)C(=O)O; Heptanoyl(6-Me) = CC(C)CCCCC(=O)*; Dab = NCC[CH](N)C(=O)O
Columns and labels:
Test in all cases: growth of human tumour cells (NCI), 48 h
[1] = system: COLO 205 colon
[2] = system: A549 NSCLC
[3] = system: NCI-H460 lung
[4] = system: HCC-2998 colon
[5] = system: HCT-15 colon
[6] = system: SR leukemia
[7] = system: SK-OV-3 ovarian
[8] = system: OVCAR-8 ovarian
[9] = system: HOP-62 NSCLC
[10] = system: CCRF-CEM leukemia

SMILES: Cn1nc(C(F)(F)F)cc1-c1c[nH]c(OCc2ccc(Cl)cc2)c(-c2ccc(Cl)c(C(F)(F)F)c2)c1=O
- GI50 [1]: 0.935 µM
- TGI [1]: 1.97 µM
- GI50 [2]: 1.45 µM
- TGI [2]: > 50 µM
- GI50 [3]: 0.944 µM
- TGI [3]: 5 µM
- GI50 [4]: 1.23 µM
- TGI [4]: 6.56 µM
- GI50 [5]: 0.784 µM
- TGI [5]: 5.07 µM
- GI50 [6]: 1.09 µM
- TGI [6]: > 14.3 µM
- GI50 [7]: 1.36 µM
- TGI [7]: 4.19 µM
- GI50 [8]: 1.19 µM
- TGI [8]: > 50 µM
- GI50 [9]: 1.3 µM
- TGI [9]: 3.55 µM
- GI50 [10]: 0.998 µM
- TGI [10]: > 50 µM

SMILES: Cc1ccc2c(c1)c(Sc1ccc(C(=O)NO)cc1)c1n2CN(C)CC1
- GI50 [1]: 1.82 µM
- TGI [1]: 4.11 µM
- GI50 [2]: 2.27 µM
- TGI [2]: 5.81 µM
- GI50 [3]: 2.05 µM
- TGI [3]: 6.16 µM
- GI50 [4]: 1.64 µM
- TGI [4]: 3.67 µM
- GI50 [5]: 3.65 µM
- TGI [5]: 13.6 µM
- GI50 [6]: 2.69 µM
- TGI [6]: 8.93 µM
- GI50 [7]: 1.77 µM
- TGI [7]: 3.8 µM
- GI50 [8]: 1.69 µM
- TGI [8]: 4.99 µM
- GI50 [9]: 1.61 µM
- TGI [9]: 3.83 µM
- GI50 [10]: 1.3 µM
- TGI [10]: 9.52 µM

SMILES: CCc1nc(N)nc(N)c1-c1ccc2nnn(O)c2c1
- TGI [1]: > 100 µM
- TGI [2]: > 100 µM
- TGI [3]: > 100 µM
- TGI [4]: > 100 µM
- TGI [5]: > 100 µM
- TGI [6]: > 100 µM
- TGI [7]: > 100 µM
- TGI [8]: > 100 µM
- TGI [9]: > 100 µM
- TGI [10]: > 100 µM

SMILES: N=C(N)SCc1c2ccccc2c(CSC(=N)N)c2ccccc12
- GI50 [1]: 2.75 µM
- TGI [1]: 14.1 µM
- GI50 [2]: 3.61 µM
- TGI [2]: 30.9 µM
- GI50 [3]: 1.08 µM
- TGI [3]: 15.3 µM
- GI50 [4]: 11.3 µM
- TGI [4]: 23.7 µM
- GI50 [5]: 12.4 µM
- TGI [5]: 32.4 µM
- GI50 [6]: 0.408 µM
- TGI [6]: 3.03 µM
- GI50 [7]: 10.4 µM
- TGI [7]: 22.6 µM
- GI50 [8]: 6.49 µM
- TGI [8]: 50.4 µM
- GI50 [9]: 10.5 µM
- TGI [9]: 26.5 µM
- GI50 [10]: 4.7 µM
- TGI [10]: 36.1 µM

SMILES: COCCNc1ccc2c3c(cccc13)C(=O)N(CCN(C)C)C2=O
- GI50 [1]: 2.74 µM
- TGI [1]: 12.5 µM
- GI50 [2]: 6.35 µM
- TGI [2]: > 25 µM
- GI50 [3]: 4.63 µM
- TGI [3]: 11.4 µM
- GI50 [4]: 10.1 µM
- TGI [4]: > 25 µM
- GI50 [5]: 6.84 µM
- TGI [5]: > 25 µM
- GI50 [6]: 3.67 µM
- TGI [6]: 11.4 µM
- GI50 [7]: 4.28 µM
- TGI [7]: > 25 µM
- GI50 [8]: 6.85 µM
- TGI [8]: > 25 µM
- GI50 [9]: 7.55 µM
- TGI [9]: > 25 µM
- GI50 [10]: 6.38 µM
- TGI [10]: > 25 µM

SMILES: CCCc1cc(=O)n2c(C(=O)Nc3cccc(C(=O)OCC)c3)c(C(=O)Nc3ccc(F)cc3)sc2n1
- GI50 [1]: 70.8 µM
- TGI [1]: > 140 µM
- GI50 [2]: 4.32 µM
- TGI [2]: 24.1 µM
- GI50 [3]: 13.3 µM
- TGI [3]: > 140 µM
- GI50 [4]: > 140 µM
- TGI [4]: > 140 µM
- GI50 [5]: 125 µM
- TGI [5]: > 140 µM
- GI50 [6]: 51.7 µM
- TGI [6]: > 140 µM
- GI50 [7]: 23.9 µM
- TGI [7]: 75 µM
- GI50 [8]: 3.63 µM
- TGI [8]: 15 µM
- GI50 [9]: 3.54 µM
- TGI [9]: 28.8 µM
- GI50 [10]: > 140 µM
- TGI [10]: > 140 µM

SMILES: Cc1cc(Nc2ncc3c(n2)N(C)C(=O)N(c2cc(NC(=O)c4cccc(C(F)(F)F)c4)ccc2C)C3)n(C)n1
- GI50 [1]: 0.019 µM
- TGI [1]: 0.0368 µM
- GI50 [2]: 0.044 µM
- TGI [2]: 0.417 µM
- GI50 [3]: 0.0832 µM
- TGI [3]: > 46.4 µM
- GI50 [4]: 0.541 µM
- TGI [4]: > 46.4 µM
- GI50 [5]: 0.196 µM
- TGI [5]: > 46.4 µM
- GI50 [6]: 0.0264 µM
- TGI [6]: 1.21 µM
- GI50 [7]: 0.022 µM
- TGI [7]: 0.0701 µM
- GI50 [9]: 0.0769 µM
- TGI [9]: > 15.6 µM
- GI50 [10]: 2.36 µM
- TGI [10]: > 46.4 µM

SMILES: O=C([O][Hg][CH2]C1OCCOC1[CH2][Hg][O]C(=O)c1ccccc1)c1ccccc1 (configuration not stated)
- GI50 [1]: 1.82 µM
- TGI [1]: 3.27 µM
- GI50 [2]: 16.7 µM
- TGI [2]: 32.8 µM
- GI50 [3]: 19.1 µM
- TGI [3]: 36.2 µM
- GI50 [4]: 17.1 µM
- TGI [4]: 30.8 µM
- GI50 [5]: 8.95 µM
- TGI [5]: 24.9 µM
- GI50 [6]: 2.22 µM
- TGI [6]: 7.21 µM
- GI50 [7]: 19.4 µM
- TGI [7]: 34.1 µM
- GI50 [8]: 14.9 µM
- TGI [8]: 44 µM
- GI50 [10]: 1.66 µM
- TGI [10]: > 23.4 µM

SMILES: CCC(C)C1NC(=O)C(CCNCS(=O)(=O)O)NC(=O)C(NC(=O)C(CCNCS(=O)(=O)O)NC(=O)C(NC(=O)C(CCNCS(=O)(=O)O)NC(=O)CCCCC(C)C)C(C)O)CCNC(=O)C(C(C)O)NC(=O)C(CCNCS(=O)(=O)O)NC(=O)C(CCNCS(=O)(=O)O)NC(=O)C(C(C)CC)NC1=O (configuration not stated) ({Heptanoyl(6-Me)}-[ξDab(CH2SO3H)]T[ξDab(CH2SO3H)][Dab][ξDab(CH2SO3H)]II[ξDab(CH2SO3H)][ξDab(CH2SO3H)]T; lactam 4-C; configuration not given here)
- GI50 [1]: 3.26 µM
- TGI [1]: 8.85 µM
- GI50 [2]: > 25 µM
- TGI [2]: > 25 µM
- GI50 [3]: 6.86 µM
- TGI [3]: 22.1 µM
- GI50 [4]: 5.28 µM
- TGI [4]: 14.2 µM
- GI50 [5]: > 25 µM
- TGI [5]: > 25 µM
- GI50 [6]: 1.32 µM
- TGI [6]: > 25 µM
- GI50 [7]: 8.13 µM
- TGI [7]: > 25 µM
- GI50 [8]: 9.66 µM
- TGI [8]: > 25 µM
- GI50 [9]: 8.74 µM
- TGI [9]: > 25 µM

SMILES: N#Cc1c(N)n2c(nc1=Nc1ccc(Cl)cc1)sc1cc(Cl)ccc12
- GI50 [3]: 22 µM
- TGI [3]: > 100 µM
- GI50 [4]: 2.23 µM
- TGI [4]: 8.94 µM
- GI50 [5]: 5.47 µM
- TGI [5]: > 100 µM
- GI50 [6]: 2.26 µM
- TGI [6]: > 100 µM
- GI50 [7]: 7.14 µM and 5.3 µM
- TGI [7]: > 100 µM
- GI50 [9]: 4.6 µM
- TGI [9]: 30.1 µM
- GI50 [10]: 4.21 µM
